From ChEMBL document CHEMBL6120974, “Hydrazide-Based Class I Selective HDAC Inhibitors Completely Reverse Chemoresistance Synergistically in Platinum-Resistant Solid Cancer Cells” (J Med Chem, 2024) come the findings set out here.

The source made the active and inactive calls. The calls are words filed in the database; no cut-off is given here. Bounds are passed on as bounds.

In assay [1] the target is T1, Protein deacetylase HDAC6 (Homo sapiens, UniProt Q9UBN7).
T1 sequence (Q9UBN7 whole entry): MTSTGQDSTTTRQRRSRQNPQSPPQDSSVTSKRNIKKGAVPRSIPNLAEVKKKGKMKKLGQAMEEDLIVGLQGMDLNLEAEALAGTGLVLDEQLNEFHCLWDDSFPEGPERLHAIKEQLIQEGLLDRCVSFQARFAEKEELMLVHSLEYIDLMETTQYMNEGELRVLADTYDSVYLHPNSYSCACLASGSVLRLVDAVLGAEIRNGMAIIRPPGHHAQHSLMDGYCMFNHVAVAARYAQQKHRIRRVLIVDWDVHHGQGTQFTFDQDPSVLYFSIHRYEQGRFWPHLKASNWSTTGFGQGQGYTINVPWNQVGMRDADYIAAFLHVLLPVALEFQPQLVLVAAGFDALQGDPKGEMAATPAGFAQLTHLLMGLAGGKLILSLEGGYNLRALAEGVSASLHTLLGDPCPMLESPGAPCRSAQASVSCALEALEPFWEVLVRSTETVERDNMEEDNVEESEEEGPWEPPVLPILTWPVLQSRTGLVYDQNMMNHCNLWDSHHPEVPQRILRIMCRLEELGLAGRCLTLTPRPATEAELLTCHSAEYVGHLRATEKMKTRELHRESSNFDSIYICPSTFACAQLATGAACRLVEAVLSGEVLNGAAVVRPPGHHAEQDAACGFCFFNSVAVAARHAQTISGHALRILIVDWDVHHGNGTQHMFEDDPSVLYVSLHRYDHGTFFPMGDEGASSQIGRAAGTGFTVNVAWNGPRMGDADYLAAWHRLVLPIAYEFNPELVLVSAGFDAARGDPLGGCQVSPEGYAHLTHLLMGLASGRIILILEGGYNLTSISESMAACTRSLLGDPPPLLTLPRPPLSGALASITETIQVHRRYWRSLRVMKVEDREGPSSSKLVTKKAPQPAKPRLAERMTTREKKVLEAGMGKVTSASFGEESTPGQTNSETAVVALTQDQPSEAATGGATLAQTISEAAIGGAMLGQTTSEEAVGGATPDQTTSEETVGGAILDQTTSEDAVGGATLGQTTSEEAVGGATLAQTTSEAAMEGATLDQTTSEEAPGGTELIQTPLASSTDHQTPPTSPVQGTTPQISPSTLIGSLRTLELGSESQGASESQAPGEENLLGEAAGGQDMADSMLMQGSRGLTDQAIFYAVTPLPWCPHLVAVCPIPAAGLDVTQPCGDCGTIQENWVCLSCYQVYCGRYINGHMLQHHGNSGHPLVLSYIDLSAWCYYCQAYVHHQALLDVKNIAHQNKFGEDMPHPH
Kind of assay: Inhibition of N-terminal GST-tagged full length recombinant human HDAC6 (1 to 1215 end residues) expressed in sf9 cells using ZMAL (Z-Lys(Ac)-AMC as fluorogenic substrate preincubated with compound for 60 mins followed by substrate addition and measured after 90 mins by fluorescence based microplate reader analysis.

The subject of assay [2] is A2780. Kind of assay: Induction of apoptosis in human A2780 cells assessed as increase in apoptotic nuclei at sub-G1 phase at 2 uM in presence of cisplatin at 16 uM preincubated with compound for 48 hrs prior to addition of cisplatin and measured after 24 hrs by flow cytometric analysis. Type of assay: functional, cell-based. The conditions noted are these: time 72.0 hrs. (Flow cytometry measures light scatter and fluorescence of single cells or particles in a stream.)

Assay [3] relates to CAL-27. Kind of assay: Induction of apoptosis in human CAL-27 cells assessed as caspase-3/7 activation at 0.316 uM incubated for 48 hrs by capase3/7 green dye based analysis. The format is functional, cell-based.
In assay [4] the test system is Cal27CisR. Nature of the assay: Induction of apoptosis in cisplatin resistant human Cal27CisR cells assessed as caspase-3/7 activation at 0.316 uM incubated for 48 hrs by capase3/7 green dye based analysis. The format is functional, cell-based.
Assay [5] has as its system CAL-27. Nature of the assay: Induction of apoptosis in human CAL-27 cells assessed as increase in caspase 3/7 activation at 0.316 uM in presence of cisplatin preincubated with compound for 48 hrs co-treated with cisplatin and measured after 24 hrs by capase3/7 green dye based analysis. The format is functional, cell-based. Particulars: time 72.0 hrs.
The test system of assay [6] is A2780. Nature of the assay: Induction of apoptosis in human A2780 cells assessed as increase in apoptotic nuclei at sub-G1 phase at 2 uM incubated for 48 hrs by flow cytometric analysis. Type of assay: functional, cell-based.
The test system of assay [7] is Cal27CisR. Nature of the assay: Induction of DNA damage in cisplatin resistant human Cal27CisR cells assessed as increase in gammaH2AX formation at 0.316 uM in presence of cisplatin at 16.5 uM pretreated with compound for 48 hrs prior to addition of cisplatin and measured after 24 hrs by Hoechst 33342 staining based Immunofluorescence analysis. Type of assay: functional, cell-based. The conditions noted are these: time 72.0 hrs.

The subject of assay [8] is Cal27CisR. Nature of the assay: Induction of apoptosis in cisplatin resistant human Cal27CisR cells assessed as increase in Bcl-2 protein level at 0.316 uM in presence of cisplatin at 16.5 uM preincubated with compound for 48 hrs prior to addition of cisplatin and measured after 24 hrs by Immunoblotting analysis. The format is functional, cell-based. Particulars: time 72.0 hrs. (A western blot detects proteins with antibodies after separation by electrophoresis.)

The subject of assay [9] is A2780. Nature of the assay: Induction of apoptosis in human A2780 cells assessed as decrease in Bcl-2 protein level at 0.75 uM in presence of cisplatin at 3.5 uM preincubated with compound for 48 hrs prior to addition of cisplatin and measured after 24 hrs by Immunoblotting analysis. Type of assay: functional, cell-based. Particulars: time 72.0 hrs.
Assay [10] deals with Cal27CisR. Kind of assay: Induction of cell cycle arrest in cisplatin resistant human Cal27CisR cells assessed as increase in p21 expression at 0.316 uM incubated for 48 hrs by Western blotting analysis. The format is functional, cell-based.
Assay [11] concerns A2780. Nature of the assay: Downregulation of survivin expression in human A2780 cells at 0.75 uM incubated for 48 hrs by Immunoblotting analysis. The format is functional, cell-based.
Assay [12] relates to A2780cisR. Kind of assay: Effect on survivin expression in human cisplatin resistant human A2780 cisR cells at 2 uM in presence of cisplatin at 16 uM preincubated with compound for 48 hrs prior to addition of cisplatin and measured after 24 hrs by Immunoblotting analysis. The format is functional, cell-based. The conditions noted are these: time 72.0 hrs.
Assay [13] deals with Cal27CisR. Kind of assay: Induction of apoptosis in human Cal27CisR cells assessed as increase in BIM expression at 0.316 uM incubated for 48 hrs by Immunoblotting analysis. The format is functional, cell-based.
Assay [14] relates to Cal27CisR. Kind of assay: Induction of apoptosis in cisplatin resistant human Cal27CisR cells assessed as increase in BIM expression at 0.316 uM in presence of cisplatin at 16.5 uM preincubated with compound for 48 hrs prior to addition of cisplatin and measured after 24 hrs by Immunoblotting analysis. The format is functional, cell-based. The conditions noted are these: time 72.0 hrs.

Assay [15] has as its system A2780. Nature of the assay: Induction of apoptosis in human A2780 cells assessed as increase in BIM expression at 0.75 uM incubated for 48 hrs by Immunoblotting analysis. The format is functional, cell-based.
Assay [16] deals with A2780. Kind of assay: Induction of apoptosis in human A2780 cells assessed as increase in BIM expression at 0.75 uM in presence of cisplatin at 3.5 uM preincubated with compound for 48 hrs prior to addition of cisplatin and measured after 24 hrs by Immunoblotting analysis. Type of assay: functional, cell-based. Particulars: time 72.0 hrs.
The test system of assay [17] is A2780cisR. Kind of assay: Induction of apoptosis in cisplatin resistant human A2780 cisR cells assessed as increase in BIM expression at 2 uM incubated for 48 hrs by Immunoblotting analysis. Type of assay: functional, cell-based.
The subject of assay [18] is A2780cisR. Kind of assay: Induction of apoptosis in cisplatin resistant human A2780 cisR cells assessed as increase in apoptotic nuclei at sub-G1 phase at 2 uM in presence of cisplatin at 16 uM preincubated with compound for 48 hrs prior to addition of cisplatin and measured after 24 hrs by flow cytometric analysis. Type of assay: functional, cell-based. The conditions noted are these: time 72.0 hrs.

The test system of assay [19] is MV4-11. Nature of the assay: cells. Particulars: Homo sapiens, MV4-11, 72 h.
Description: Cytotoxicity against human MV4-11 cells harboring wild type p53 assessed as cell viability incubated for 72 hrs by MTT assay

Consider `CCCNNC(=O)c1ccc(CN(CC(=O)NCc2ccccc2)C(=O)c2ccc(N(C)C)cc2)cc1`, for which the IC50 was greater than 10000 nM in assay [1] and 194 nM in [19]. The outcome in assay [2], in assay [12], in [15], in assay [16] and in assay [18] was inactive. In addition, the results for the Activity entry in assay [3], in [4] and in assay [8] were “Active; Low Caspase Activation Observed”, “Active; Low Activation Observed” and “Not active; Slight Increase Observed”, respectively. Also, the outcome in assay [5], in assay [6], in [7], in assay [9], in assay [10] and in assay [11] was Active. The result in assay [13], in [14] and in assay [17] was Active.
For the compound `CCCCNNC(=O)c1ccc(CN(CC(=O)NCc2ccccc2)C(=O)c2ccc(N(C)C)cc2)cc1`, the IC50 in assay [1] is greater than 3330 nM; in assay [19], 212 nM. Further, the outcome in assay [2], in assay [12], in [15], in [16] and in assay [18] was inactive. Further, the Activity result in assay [3] is “Active; Low Caspase Activation Observed”; in [4] it was “Active; Low Activation Observed”; in assay [8], “Not active; Slight Increase Observed”. Moreover, the result in [5], in assay [6], in [7], in assay [9], in [10] and in [11] was Active. Also, the outcome in [13], in assay [14] and in assay [17] was Active.

The term IC50 denotes the midpoint of a concentration-inhibition curve.
